From US8163793B2, “Proline derivatives” (Hoffman-La Roche Inc., priority 2009, dated 2012)
Counter-ions that a name gives are not always drawn. Like-named read-outs stand apart in the source and are kept apart here.

Legend:
Cathepsin S = Cathepsin S (UniProt P25774); assay: Cathepsin enzyme inhibition assay (fluorogenic peptide substrate Z-Val-Val-Arg-AMC), Cathepsin S; type: biochemical, human and mouse
Outline: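 Compounds were combined with 1 nM human or mouse enzyme, and substrate then started the reaction. The buffer was potassium phosphate (100 mM, pH 6.5) containing EDTA-Na 5 mM, Triton X-100 0.001% and […] 5 mM.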

Cat L = Cat L (UniProt P07711); assay: Cathepsin enzyme inhibition assay (fluorogenic peptide substrate Z-Val-Val-Arg-AMC), Cathepsin L; type: biochemical, human and mouse
Outline: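 Fluorogenic cleavage of Z-Val-Val-Arg-AMC (20 μM) by 1 nM Cat L was monitored at ex 360/em 465 nm for 20 min, the linear phase. The buffer was 100 mM potassium phosphate pH 6.5 with 5 mM EDTA and DTT. IC50 values were derived by standard methods, in μM.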

[1] = enzyme 1 nM, substrate 20 μM, pH 6.5; read-out: CatS IC50
[2] = enzyme 1 nM, substrate 20 μM, pH 6.5; read-out: CatL IC50

IC50 (Cathepsin S; [1]) [nM] | IC50 (Cat L; [2]) [nM] | SMILES | IC50 (Cathepsin S; read-out: CatS IC50; enzyme 1 nM, substrate 20 μM, pH 6.5) [nM] | IC50 (Cat L; read-out: CatL IC50; enzyme 1 nM, substrate 20 μM, pH 6.5) [nM]
10500 | ≥ 25000 | Cc1cc(N2C[C@H](S(C)(=O)=O)C[C@H]2C(=O)NC2(C#N)CC2)n(Cc2ccccc2)n1 [Example 449, (2S,4R)-1-(2-Benzyl-5-methyl-2H-pyrazol-3-yl)-4-methanesulfonyl-pyrrolidine-2-carboxylic Acid (1-cyano-cyclopropyl)-amide] |  | 
2610 | ≥ 25000 | CC(C)C[C@]1(C(=O)NC2(C#N)CC2)C[C@H](S(C)(=O)=O)[C@@H](c2ccc(F)cc2)N1 [Example 123, (2R,4S,5R)-5-(4-Fluoro-phenyl)-2-isobutyl-4-methanesulfonyl-pyrrolidine-2-carboxylic acid (1-cyano-cyclopropyl)-amide] |  | 
0.5 | 43700 | Cc1cc(N2C[C@H](S(=O)(=O)c3ccccc3C(F)(F)F)C[C@H]2C(=O)NC2(C#N)CC2)n(-c2ccccc2)n1 [Example 192, (2S,4R)-1-(5-Methyl-2-phenyl-2H-pyrazol-3-yl)-4-(2-trifluoromethyl-benzenesulfonyl)-pyrrolidine-2-carboxylic acid (1-cyano-cyclopropyl)-amide] |  | 
0.04 | 68 | N#CC1(NC(=O)[C@@H]2C[C@@H](S(=O)(=O)c3ccc(-n4ccnc4)cc3Cl)CN2C(=O)C2(c3ccc(Cl)nc3)CC2)CC1 [Example 382, (2S,4R)-4-(2-Chloro-4-imidazol-1-yl-benzenesulfonyl)-1-[1-(6-chloro-pyridin-3-yl)-cyclopropanecarbonyl]-pyrrolidine-2-carboxylic acid (1-cyano-cyclopropyl)-amide] |  | 
0.05 | 20800 | Cn1cc(-c2ccc(S(=O)(=O)[C@@H]3C[C@@H](C(=O)NC4(C#N)CC4)N(C(=O)C4(C(F)(F)F)CC4)C3)c(C(F)(F)F)c2)cn1 [Example 238, (2S,4R)-4-[4-(1-Methyl-1H-pyrazol-4-yl)-2-trifluoromethyl-benzenesulfonyl]-1-(1-trifluoromethyl-cyclopropanecarbonyl)-pyrrolidine-2-carboxylic acid (1-cyano-cyclopropyl)-amide] |  | 
0.9 | 23400 | CC(=O)N1C[C@H](S(=O)(=O)c2ccc(N3CCCCC3)cc2Cl)C[C@H]1C(=O)NC1(C#N)CC1 [Example 133, (2S,4R)-1-Acetyl-4-(2-chloro-4-piperidin-1-yl-benzenesulfonyl)-pyrrolidine-2-carboxylic acid (1-cyano-cyclopropyl)-amide formiate] |  | 
0.33 | 31800 | N#CC1(NC(=O)[C@@H]2C[C@@H](S(=O)(=O)c3ccc(OCC(F)(F)F)cc3Cl)CN2C(=O)C2CC2(F)F)CC1 (stereo partly drawn) [Example 241, (2S,4R)-4-[2-Chloro-4-(2,2,2-trifluoro-ethoxy)-benzenesulfonyl]-1-(2,2-difluoro-cyclopropanecarbonyl)-pyrrolidine-2-carboxylic acid (1-cyano-cyclopropyl)-amide] |  | 
100 | ≥ 25000 | N#CCNC(=O)[C@@H]1C[C@@H](S(=O)(=O)c2ccccc2Cl)CN1C1COC1 [Example 63, (2S,4R)-4-(2-Chloro-benzenesulfonyl)-1-oxetan-3-yl-pyrrolidine-2-carboxylic acid cyanomethyl-amide] |  | 
0.3 | ≥ 25000 | CC1(C(=O)N2C[C@H](S(=O)(=O)c3ccccc3C(F)(F)F)C[C@H]2C(=O)NC2(C#N)CC2)CC1 [Example 207, (2S,4R)-1-(1-Methyl-cyclopropanecarbonyl)-4-(2-trifluoromethyl-benzenesulfonyl)-pyrrolidine-2-carboxylic acid (1-cyano-cyclopropyl)-amide] |  | 
2.4 | 1540 | Cc1cc(N2C[C@H](S(=O)(=O)c3ccccc3Cl)C[C@H]2C(=O)NC2(C#N)CC2)n(CCCc2ccccc2)n1 [Example 474, (2S,4R)-4-(2-Chloro-benzenesulfonyl)-1-[5-methyl-2-(3-phenyl-propyl)-2H-pyrazol-3-yl]-pyrrolidine-2-carboxylic acid (1-cyano-cyclopropyl)-amide] |  | 
27 | ≥ 25000 | C[C@H](Oc1ccc(S(=O)(=O)[C@@H]2C[C@H](C(=O)NC3(C#N)CC3)N(C(=O)C3CC3)C2)c(Cl)c1)C(F)(F)F [Example 198, (2R,4R)-4-[2-Chloro-4-((S)-2,2,2-trifluoro-1-methyl-ethoxy)-benzenesulfonyl]-1-cyclopropanecarbonyl-pyrrolidine-2-carboxylic acid (1-cyano-cyclopropyl)-amide] |  | 
0.9 | ≥ 25000 | Cc1ccc(=O)n(-c2ccc(S(=O)(=O)[C@H]3CN[C@H](C(=O)NC4(C#N)CC4)C3)c(C(F)(F)F)c2)n1 [Example 23, (2S,4R)-4-[4-(3-M ethyl-6-oxo-6H-pyridazin-1-yl)-2-trifluoromethyl-benzenesulfonyl]-pyrrolidine-2-carboxylic acid (1-cyano-cyclopropyl)-amide hydrochloride] |  | 
41 | 61700 | N#CC1(NC(=O)[C@@H]2C[C@@H](S(=O)(=O)c3ccccc3Cl)CN2CC(F)(F)C(F)(F)F)CC1 [Example 92, (2S,4R)-4-(2-Chloro-benzenesulfonyl)-1-(2,2,3,3,3-pentafluoro-propyl)-pyrrolidine-2-carboxylic acid (1-cyano-cyclopropyl)-amide] |  | 
0.215 | 11700 | Cc1cc(N2C[C@H](S(=O)(=O)c3ccc(N4CC(F)(F)C4)cc3C(F)(F)F)C[C@H]2C(=O)NC2(C#N)CC2)n(C2CCC2)n1 [Example 415, (2S,4R)-1-(2-Cyclobutyl-5-methyl-2H-pyrazol-3-yl)-4-[4-(3,3-difluoro-azetidin-1-yl)-2-trifluoromethyl-benzenesulfonyl]-pyrrolidine-2-carboxylic acid (1-cyano-cyclopropyl)-amide] |  | 
0.2 | ≥ 25000 | N#CC1(NC(=O)[C@@H]2C[C@@H](S(=O)(=O)c3ccc(F)cc3C(F)(F)F)CN2C(=O)C2(C(F)(F)F)CC2)CC1 [Example 209, (2S,4R)-4-(4-Fluoro-2-trifluoromethyl-benzenesulfonyl)-1-(1-trifluoromethyl-cyclopropanecarbonyl)-pyrrolidine-2-carboxylic acid (1-cyano-cyclopropyl)-amide] |  | 
8.7 | 6800 | CN1CCC(C(=O)N2C[C@H](S(=O)(=O)c3ccccc3Cl)C[C@H]2C(=O)NC2(C#N)CC2)CC1 [Example 82, (2S,4R)-4-(2-Chloro-benzenesulfonyl)-1-(1-methyl-piperidine-4-carbonyl)-pyrrolidine-2-carboxylic acid (1-cyano-cyclopropyl)-amide] |  | 
1.1 | 15700 | N#CC1(NC(=O)[C@@H]2C[C@@H](S(=O)(=O)c3ccccc3Cl)CN2C(=O)OC2CCCC2)CC1 [Example 98, (2S,4R)-4-(2-Chloro-benzenesulfonyl)-2-(1-cyano-cyclopropylcarbamoyl)-pyrrolidine-1-carboxylic acid Cyclopentyl Ester] |  | 
 |  | Cc1cc(-c2ccc(S(=O)(=O)[C@@H]3C[C@@H](C(=O)NC4(C#N)CC4)N(C(=O)C4(C(F)(F)F)CC4)C3)c(C(F)(F)F)c2)ccn1 [Example 248, (2S,4R)-4-[4-(2-Methyl-pyridin-4-yl)-2-trifluoromethyl-benzenesulfonyl]-1-(1-trifluoromethyl-cyclopropanecarbonyl)-pyrrolidine-2-carboxylic acid (1-cyano-cyclopropyl)-amide] | 0.55 | 54700
